According to article PMC11897524 (Frontiers in Pharmacology, 2025):

Key:
STAT6 [1] = biological target: T1, STAT6 (Homo sapiens, UniProt P42226); experiment: Binding affinity to BET and STAT family members
STAT1 [2] = biological target: T2, STAT1 (Homo sapiens, UniProt P42224); experiment: Inhibitory effect on BET and STAT family members; assay type: binding
Excerpt: (§1) TABLE 4 The inhibitory effect of BST-4 on other members of the BET and STAT families. | column: IC50 (μM)

STAT6 [3] = biological target: T1, STAT6; experiment: Inhibitory effect on BET and STAT family members; assay type: binding
Excerpt: as §1

BRD3 = BRD3 (Homo sapiens, UniProt Q15059); experiment: Inhibitory effect on BET and STAT family members; assay type: binding
Excerpt: as §1

BRD2 = BRD2 (Homo sapiens, UniProt P25440); experiment: Inhibitory effect on BET and STAT family members; assay type: binding
Excerpt: as §1

STAT5b = STAT5b (Homo sapiens, UniProt P51692); experiment: Inhibitory effect on BET and STAT family members; assay type: binding
Excerpt: as §1

STAT2 = STAT2 (Homo sapiens, UniProt P52630); experiment: Inhibitory effect on BET and STAT family members; assay type: binding
Excerpt: as §1

STAT5a = STAT5a (Homo sapiens, UniProt P42229); experiment: Inhibitory effect on BET and STAT family members; assay type: binding
Excerpt: as §1

BRDT = BRDT (Homo sapiens, UniProt Q58F21); experiment: Inhibitory effect on BET and STAT family members; assay type: binding
Excerpt: as §1

STAT4 [4] = biological target: T3, STAT4 (Homo sapiens, UniProt Q14765); experiment: Inhibitory effect on BET and STAT family members; assay type: binding
Excerpt: as §1

shSTAT3-CAKI-2 cells = experiment: MTT assay on shRNA-transfected CAKI-2 cells; assay type: cell-based; conditions: Homo sapiens, CAKI-2 stably expressing STAT3 shRNA, 48 h, read-out: IC50 (μM) ± SD shSTAT3-CAKI-2
Procedure: (§2) The effect of hit compounds on cytotoxicity was determined as previously reported ([Ding et al., 2020]). In brief, cells treated with the tested compounds were added with MTT reagent to form formazan crystals, and then the optical density (OD) values at 570 nm were determined after the crystals were dissolved in DMSO. […] Next, the values of IC50 of the selected compounds against more RCC cell lines were determined. The 5 × 10^3 cells in 100 μL culture medium were injected into each well of a 96-well plate and cultured overnight. Add different concentrations of compounds and incubate for 48 h. Then 100 μL of MTT (0.5 mg/mL) solution was added to the 96-well plate and maintained at 37°C for 4 h. Finally, 200 μL of DMSO was added and shaken for 10 min. The OD values at 570 nm were determined by a Synergy 4 microplate reader.
(§3) ^aIC50 (μM) is the concentration of compound needed to reduce cell growth by 50% following 48 h cell treatment with BST-4. shControl-CAKI-2: CAKI-2 cells stably expressing Control shRNA; shBRD4-CAKI-2 cells: CAKI-2 cells stably expressing BRD4 shRNA; shSTAT3-CAKI-2 cells: CAKI-2 cells stably expressing STAT3 shRNA; shBRD4/STAT3-CAKI-2 cells: CAKI-2 cells stably expressing BRD4/STAT3 shRNA. Each experiment was performed at least three times. Data are presented as the mean ± SD.

shControl-CAKI-2 cells = experiment: MTT assay on shRNA-transfected CAKI-2 cells; assay type: cell-based; conditions: Homo sapiens, CAKI-2 stably expressing Control shRNA, 48 h, read-out: IC50 (μM) ± SD shControl-CAKI-2
Procedure: as §2, §3

shBRD4-CAKI-2 cells = experiment: MTT assay on shRNA-transfected CAKI-2 cells; assay type: cell-based; conditions: Homo sapiens, CAKI-2 stably expressing BRD4 shRNA, 48 h, read-out: IC50 (μM) ± SD shBRD4-CAKI-2
Procedure: as §2, §3

[5] = test system: shBRD4/STAT3-CAKI-2 cells; experiment: MTT assay on shRNA-transfected CAKI-2 cells; assay type: cell-based; conditions: Homo sapiens, CAKI-2 stably expressing BRD4/STAT3 shRNA, 48 h, read-out: IC50 (μM) ± SD shBRD4/STAT3-CAKI-2
Procedure: as §2, §3

STAT1 [6] = biological target: T2, STAT1; experiment: Binding affinity to BET and STAT family members
STAT4 [7] = biological target: T3, STAT4; experiment: Binding affinity to BET and STAT family members
[8] = Hematology parameters of treated mice; assay type: in vivo, BALB/c nude mice; conditions: BST-4-treated vs vehicle groups
Procedure: To further investigate the in vivo effects of BST-4, 6–8 weeks male BALB/c nude mice were obtained by Changzhou Cavens Experimental Animal Co., Ltd. (Changzhou, China). The mice were acclimatized to the laboratory environment for a week before the experiment. The housing conditions were maintained at a temperature of 22°C ± 2°C, a relative humidity of 50%–60%, and a 12-h light/dark cycle. 0.1 mL of CAKI-2cell suspension (1 × 10⁶ cells) was subcutaneously injected into the right flank of each mouse. […] The vehicle group was injected with a vehicle solution consisting of 5% DMSO and PBS. The tumor volume of mice was measured every 2 days and calculated according to the formula: (c × c × d)/2, where c and d represent the minimum diameter and maximum diameter, respectively. All animal experiments were performed and approved by the Ethics Committee of China Pharmaceutical University.
FIGURE 12 Hematology parameters of mice in the BST-4-treated groups and vehicle groups. (A) White blood cell (WBC); (B) Red blood cells (RBC); (C) Platelets (PLT); (D) Hemoglobin (HGB). Data are presented as the mean ± SD, n = 5.

STAT3 phosphorylation = experiment: Western blot of phosphorylated STAT3 in CAKI-2 cells; assay type: cell-based, human; conditions: 100 nM, 24 h
Procedure: For the assessment of protein expression levels, Western blot analysis was conducted following a standardized protocol ([Zhou et al., 2022]). The CAKI-2 cells were initially rinsed with PBS to remove any residual culture medium. Subsequently, cells were lysed using a RIPA buffer supplemented with 1 mM phenylmethylsulfonyl fluoride (PMSF), and the lysate was incubated on ice for a duration of 1 h. The lysate was centrifuged at a speed of 13,000 rpm for 30 min at 4°C. Protein concentrations were quantified using a BCA protein assay kit (Beyotime, Shanghai, China), ensuring equal protein loading for each sample. Samples were then resolved by SDS-PAGE and transferred onto a polyvinylidene difluoride (PVDF) membrane. Subsequently, the membrane was blocked with 3% BSA in PBS at room temperature for 2 h and incubated overnight with the corresponding antibody at 4°C. After washing to remove unbound primary antibodies, the membrane was incubated with horseradish peroxidase (HRP)-conjugated secondary antibodies for a period of 1 h at room temperature. The specific protein bands were visualized using ECL detection system (Tanon, Shanghai, China), and the band intensities were quantified using ImageJ software.

T1 sequence (P42226 whole entry): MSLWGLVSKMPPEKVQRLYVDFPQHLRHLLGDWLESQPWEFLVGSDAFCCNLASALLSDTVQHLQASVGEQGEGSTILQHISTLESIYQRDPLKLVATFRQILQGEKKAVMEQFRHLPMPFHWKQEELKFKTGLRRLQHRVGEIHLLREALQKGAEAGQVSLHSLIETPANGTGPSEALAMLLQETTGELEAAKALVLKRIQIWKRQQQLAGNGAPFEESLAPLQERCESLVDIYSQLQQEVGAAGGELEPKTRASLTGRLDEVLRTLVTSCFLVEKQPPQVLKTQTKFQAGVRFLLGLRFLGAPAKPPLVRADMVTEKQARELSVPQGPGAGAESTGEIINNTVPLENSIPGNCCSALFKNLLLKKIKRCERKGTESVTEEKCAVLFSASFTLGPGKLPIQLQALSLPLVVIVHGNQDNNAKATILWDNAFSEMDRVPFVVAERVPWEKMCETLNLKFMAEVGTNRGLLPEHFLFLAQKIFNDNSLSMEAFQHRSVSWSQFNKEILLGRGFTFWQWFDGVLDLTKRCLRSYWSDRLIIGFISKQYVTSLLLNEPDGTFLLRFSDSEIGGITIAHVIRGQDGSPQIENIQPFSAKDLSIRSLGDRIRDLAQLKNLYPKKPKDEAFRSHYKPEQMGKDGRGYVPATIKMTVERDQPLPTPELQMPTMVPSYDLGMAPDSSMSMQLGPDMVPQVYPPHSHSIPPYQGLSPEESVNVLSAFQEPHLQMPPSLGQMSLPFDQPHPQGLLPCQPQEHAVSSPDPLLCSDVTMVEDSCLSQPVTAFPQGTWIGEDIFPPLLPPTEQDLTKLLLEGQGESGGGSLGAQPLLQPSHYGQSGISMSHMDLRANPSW
T3 sequence (Q14765 whole entry): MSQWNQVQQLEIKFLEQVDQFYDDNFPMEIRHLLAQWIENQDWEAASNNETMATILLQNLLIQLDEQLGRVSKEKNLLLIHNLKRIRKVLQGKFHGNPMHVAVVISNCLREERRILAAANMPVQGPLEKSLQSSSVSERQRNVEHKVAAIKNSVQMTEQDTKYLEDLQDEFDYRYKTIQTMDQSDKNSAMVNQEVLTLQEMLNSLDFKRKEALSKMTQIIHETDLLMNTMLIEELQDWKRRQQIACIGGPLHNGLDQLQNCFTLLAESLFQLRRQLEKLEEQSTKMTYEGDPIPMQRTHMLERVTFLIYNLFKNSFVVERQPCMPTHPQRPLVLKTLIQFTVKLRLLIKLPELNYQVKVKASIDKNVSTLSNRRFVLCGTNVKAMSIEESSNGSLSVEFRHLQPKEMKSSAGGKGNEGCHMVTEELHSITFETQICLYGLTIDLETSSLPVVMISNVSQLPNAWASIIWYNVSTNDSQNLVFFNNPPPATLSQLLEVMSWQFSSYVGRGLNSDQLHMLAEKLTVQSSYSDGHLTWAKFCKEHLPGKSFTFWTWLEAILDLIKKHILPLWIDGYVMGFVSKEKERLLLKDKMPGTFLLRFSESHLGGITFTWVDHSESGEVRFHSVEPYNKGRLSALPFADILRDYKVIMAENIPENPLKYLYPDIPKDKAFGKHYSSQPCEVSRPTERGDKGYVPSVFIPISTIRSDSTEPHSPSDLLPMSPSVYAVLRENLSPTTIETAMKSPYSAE
T2 sequence (P42224 whole entry): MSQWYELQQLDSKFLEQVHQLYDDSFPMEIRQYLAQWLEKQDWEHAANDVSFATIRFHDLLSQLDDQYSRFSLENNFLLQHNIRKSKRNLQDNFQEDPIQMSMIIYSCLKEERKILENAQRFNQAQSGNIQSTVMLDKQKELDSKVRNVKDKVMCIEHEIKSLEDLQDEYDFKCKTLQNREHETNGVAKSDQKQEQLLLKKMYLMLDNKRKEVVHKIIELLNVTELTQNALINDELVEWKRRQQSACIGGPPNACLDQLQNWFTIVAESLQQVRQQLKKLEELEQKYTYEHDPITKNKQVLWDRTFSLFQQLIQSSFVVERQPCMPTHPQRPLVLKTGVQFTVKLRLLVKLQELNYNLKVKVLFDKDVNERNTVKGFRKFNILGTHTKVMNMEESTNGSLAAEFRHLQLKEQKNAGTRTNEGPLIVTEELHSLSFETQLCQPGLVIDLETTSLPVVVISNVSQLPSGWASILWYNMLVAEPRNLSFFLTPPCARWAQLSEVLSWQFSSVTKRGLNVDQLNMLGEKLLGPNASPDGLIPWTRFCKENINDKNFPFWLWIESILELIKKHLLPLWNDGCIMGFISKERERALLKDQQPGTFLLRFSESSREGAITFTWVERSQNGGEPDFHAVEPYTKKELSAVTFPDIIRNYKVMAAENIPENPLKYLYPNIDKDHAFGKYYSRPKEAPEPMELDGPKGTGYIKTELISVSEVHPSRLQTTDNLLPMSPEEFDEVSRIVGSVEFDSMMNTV
STAT5b, sequence (P51692 whole entry): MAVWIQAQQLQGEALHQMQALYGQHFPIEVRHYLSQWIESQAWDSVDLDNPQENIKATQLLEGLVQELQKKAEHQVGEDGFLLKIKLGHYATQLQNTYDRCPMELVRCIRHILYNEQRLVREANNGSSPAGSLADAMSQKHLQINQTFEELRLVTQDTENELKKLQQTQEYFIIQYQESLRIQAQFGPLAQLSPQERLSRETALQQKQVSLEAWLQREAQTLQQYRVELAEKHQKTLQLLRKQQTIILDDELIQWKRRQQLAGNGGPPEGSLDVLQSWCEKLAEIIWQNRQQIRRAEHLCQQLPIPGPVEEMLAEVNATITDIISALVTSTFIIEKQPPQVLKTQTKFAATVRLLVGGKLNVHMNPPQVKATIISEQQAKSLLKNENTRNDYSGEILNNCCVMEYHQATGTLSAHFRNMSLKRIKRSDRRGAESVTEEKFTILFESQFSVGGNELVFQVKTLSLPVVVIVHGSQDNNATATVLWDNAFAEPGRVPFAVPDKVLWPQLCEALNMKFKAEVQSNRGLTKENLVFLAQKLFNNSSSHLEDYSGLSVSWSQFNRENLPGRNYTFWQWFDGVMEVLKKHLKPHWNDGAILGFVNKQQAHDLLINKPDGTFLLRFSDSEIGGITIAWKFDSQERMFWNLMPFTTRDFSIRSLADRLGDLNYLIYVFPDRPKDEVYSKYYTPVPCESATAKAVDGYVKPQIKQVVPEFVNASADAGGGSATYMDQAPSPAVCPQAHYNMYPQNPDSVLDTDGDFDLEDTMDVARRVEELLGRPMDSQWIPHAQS
BRD3, sequence (Q15059 whole entry): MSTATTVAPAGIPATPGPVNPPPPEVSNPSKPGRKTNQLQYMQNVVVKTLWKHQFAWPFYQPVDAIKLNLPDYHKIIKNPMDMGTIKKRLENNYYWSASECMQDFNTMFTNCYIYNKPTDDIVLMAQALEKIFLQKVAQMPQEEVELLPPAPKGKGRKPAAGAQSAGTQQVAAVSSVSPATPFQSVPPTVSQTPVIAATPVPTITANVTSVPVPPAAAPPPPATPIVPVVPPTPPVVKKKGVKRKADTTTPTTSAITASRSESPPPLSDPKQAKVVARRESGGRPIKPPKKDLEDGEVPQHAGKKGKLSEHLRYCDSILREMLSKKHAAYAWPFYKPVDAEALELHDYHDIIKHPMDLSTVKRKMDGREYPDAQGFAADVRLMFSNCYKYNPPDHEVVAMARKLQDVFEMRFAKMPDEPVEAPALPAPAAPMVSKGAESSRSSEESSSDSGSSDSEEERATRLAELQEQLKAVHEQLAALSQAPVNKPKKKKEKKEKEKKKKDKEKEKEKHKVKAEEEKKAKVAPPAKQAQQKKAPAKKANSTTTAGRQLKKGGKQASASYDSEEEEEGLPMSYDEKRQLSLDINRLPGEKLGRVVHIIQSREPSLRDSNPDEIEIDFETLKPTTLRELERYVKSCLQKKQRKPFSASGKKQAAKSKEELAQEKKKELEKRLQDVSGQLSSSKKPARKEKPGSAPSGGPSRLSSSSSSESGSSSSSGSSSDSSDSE
BRD2, sequence (P25440 whole entry): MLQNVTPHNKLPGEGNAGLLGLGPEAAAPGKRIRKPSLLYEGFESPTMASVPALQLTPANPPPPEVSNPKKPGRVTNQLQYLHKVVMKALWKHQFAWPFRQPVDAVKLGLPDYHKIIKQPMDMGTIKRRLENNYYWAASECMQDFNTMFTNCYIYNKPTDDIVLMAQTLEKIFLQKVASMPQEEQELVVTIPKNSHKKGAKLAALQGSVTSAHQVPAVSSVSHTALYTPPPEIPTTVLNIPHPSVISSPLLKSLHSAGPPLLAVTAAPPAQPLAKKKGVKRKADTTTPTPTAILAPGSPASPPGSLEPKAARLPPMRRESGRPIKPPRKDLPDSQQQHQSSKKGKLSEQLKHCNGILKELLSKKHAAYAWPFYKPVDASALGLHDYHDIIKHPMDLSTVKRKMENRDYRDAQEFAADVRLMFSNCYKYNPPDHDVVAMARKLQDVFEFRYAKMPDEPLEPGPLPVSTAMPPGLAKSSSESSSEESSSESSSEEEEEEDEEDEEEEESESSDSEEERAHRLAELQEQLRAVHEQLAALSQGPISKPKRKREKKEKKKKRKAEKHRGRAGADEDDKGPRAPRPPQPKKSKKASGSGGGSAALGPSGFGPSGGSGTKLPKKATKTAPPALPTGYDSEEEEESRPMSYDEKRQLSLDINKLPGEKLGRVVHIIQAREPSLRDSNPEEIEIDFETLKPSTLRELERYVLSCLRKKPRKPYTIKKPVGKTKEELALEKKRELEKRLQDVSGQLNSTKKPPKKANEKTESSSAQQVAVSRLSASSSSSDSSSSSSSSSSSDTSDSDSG

- Kd (STAT6 [1]): > 10 µM
- IC50 (STAT1 [2]): > 10 µM
- IC50 (STAT6 [3]): > 10 µM
- IC50 (BRD3): > 10 µM
- IC50 (BRD2): > 10 µM
- IC50 (STAT5b): > 10 µM
- IC50 (STAT2): > 10 µM
- IC50 (STAT5a): > 10 µM
- IC50 (BRDT): > 10 µM
- IC50 (STAT4 [4]): > 10 µM
- Kd (STAT1 [6]): > 10 µM
- Kd (STAT4 [7]): > 10 µM
- levels of representative hematological markers (WBC, RBC, PLT, HGB) vs vehicle [8]: no significant differences
SMILES: CCS(=O)(=O)Cc1cnc(Oc2c(F)cc(F)cc2OCCCCOc2ccc(/C=C/c3cc(OC)cc(OC)c3)cc2)c(-c2cc(C)c3c(=O)[nH]ccn23)c1 [BST-4]
- IC50 (shSTAT3-CAKI-2 cells): 3.48 ± 0.21 µM
- IC50 (shControl-CAKI-2 cells): 0.76 ± 0.05 µM
- IC50 (shBRD4-CAKI-2 cells): 5.09 ± 0.27 µM
- IC50 [5]: > 10 µM
- STAT3 phosphorylation in CAKI-2 cells (STAT3 phosphorylation): significantly decreased
